Test results taken from US12435058B2, “KIF18A inhibitors” (AMGEN INC., priority 2019, dated 2025).

The molecules below were run against T1, Recombinant human KIF18A (1-467 His-tagged) protein (Homo sapiens, UniProt Q8NI77) (assay: KIF18A Enzyme Assay (microtubule-stimulated ATPase activity, ADP-Glo)). Details: KIF18A protein 30 nM, ATP 75 μM (at Km), 30 μg/mL pig microtubules, ADP-Glo luminescence.
T1 construct: Recombinant human KIF18A (1-467 His-tagged) protein; His; made in house
Format: biochemical
Description: For compounds in Table A, the following assay conditions were employed:
KIF18A Enzyme Assay: Microtubule-stimulated ATPase activity assay is used to measure KIF18A enzyme activity after treatment with compound. Compounds were 2-fold serially diluted in DMSO (Sigma Inc) over 22-point concentration range. Recombinant human KIF18A (1-467 His-tagged) protein was expressed using a baculovirus system and purified by affinity chromatography by Amgen Inc. Concentrations of KIF18A protein, microtubules (MT), and ATP in the reaction were optimized for standardized homogenous enzyme assay using ADP-Glom Kinase/ATPase Assay Kit (Promega Inc). The assay measures ADP formed from the ATPase reaction. […] Read luminescence using EnVision microplate reader with ultra-luminescence module (Perkin Elmer Inc). Concentration-response curve-fitting and IC50 determination was performed using Genedata Screener Software (Standard 15.0.1, Genedata Inc) with a four-parameter logistic regression fit model.

T1 sequence (Q8NI77 1-467): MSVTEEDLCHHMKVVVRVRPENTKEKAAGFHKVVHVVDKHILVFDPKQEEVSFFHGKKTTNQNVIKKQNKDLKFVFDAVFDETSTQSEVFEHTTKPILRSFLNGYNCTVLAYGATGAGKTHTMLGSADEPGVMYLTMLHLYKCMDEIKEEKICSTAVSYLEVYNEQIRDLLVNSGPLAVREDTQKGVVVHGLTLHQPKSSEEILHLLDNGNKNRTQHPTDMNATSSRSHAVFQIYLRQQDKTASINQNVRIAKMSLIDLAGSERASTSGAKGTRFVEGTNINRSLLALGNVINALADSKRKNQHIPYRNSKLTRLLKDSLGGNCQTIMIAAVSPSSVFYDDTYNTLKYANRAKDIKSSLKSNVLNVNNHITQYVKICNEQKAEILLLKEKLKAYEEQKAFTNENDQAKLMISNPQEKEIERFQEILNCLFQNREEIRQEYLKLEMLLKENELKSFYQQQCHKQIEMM
T1 sequence (P02550 whole entry partner): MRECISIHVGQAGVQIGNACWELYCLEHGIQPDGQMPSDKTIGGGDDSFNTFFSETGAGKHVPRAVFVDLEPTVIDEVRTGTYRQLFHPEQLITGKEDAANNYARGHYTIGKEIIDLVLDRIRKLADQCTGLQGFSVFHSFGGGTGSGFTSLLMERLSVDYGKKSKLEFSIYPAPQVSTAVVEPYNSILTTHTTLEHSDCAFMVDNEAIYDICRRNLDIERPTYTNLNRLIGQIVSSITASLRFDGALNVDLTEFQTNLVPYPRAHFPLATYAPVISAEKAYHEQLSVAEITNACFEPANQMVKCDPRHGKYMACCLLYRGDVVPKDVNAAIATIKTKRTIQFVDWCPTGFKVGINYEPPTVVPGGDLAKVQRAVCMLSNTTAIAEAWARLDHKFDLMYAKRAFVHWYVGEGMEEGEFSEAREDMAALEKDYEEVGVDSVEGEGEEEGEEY
T1 sequence (P02554 whole entry partner): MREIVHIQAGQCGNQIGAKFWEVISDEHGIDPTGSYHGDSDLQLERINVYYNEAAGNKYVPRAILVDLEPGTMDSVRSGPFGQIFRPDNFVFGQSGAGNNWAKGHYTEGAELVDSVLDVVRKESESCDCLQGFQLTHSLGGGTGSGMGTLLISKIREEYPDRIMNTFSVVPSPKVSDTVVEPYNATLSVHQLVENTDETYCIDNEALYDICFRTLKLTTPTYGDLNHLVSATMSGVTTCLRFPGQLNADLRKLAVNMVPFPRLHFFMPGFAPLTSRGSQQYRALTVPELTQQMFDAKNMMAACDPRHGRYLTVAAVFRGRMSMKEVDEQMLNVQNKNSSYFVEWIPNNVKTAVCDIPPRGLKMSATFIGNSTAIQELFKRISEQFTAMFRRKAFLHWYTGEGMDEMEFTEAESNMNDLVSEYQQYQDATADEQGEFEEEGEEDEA

| IC50 | Structure (SMILES) |
| --- | --- |
| 67 nM | CC(C)(CO)Nc1cnc(C(=O)Nc2cccc(S(=O)(=O)[C@H]3CCC(F)(F)C3)c2)c(N2CCC3(CC2)CC3)n1 (single isomer, unassigned) [Example 102-1] |
| 111 nM | CC(C)(CO)Nc1cnc(C(=O)Nc2cccc(S(=O)(=O)[C@@H]3CCC(F)(F)C3)c2)c(N2CCC3(CC2)CC3)n1 (single isomer, unassigned) [Example 102-2] |
| 174 nM | CC(C)(C)NS(=O)(=O)c1cccc(NC(=O)c2ncc([C@@](C)(O)C(F)(F)F)nc2N2CCC3(CC2)CC3)c1 (single isomer, unassigned) [Example 105-1] |
| 356 nM | CC(C)(C)NS(=O)(=O)c1cccc(NC(=O)c2ncc([C@](C)(O)C(F)(F)F)nc2N2CCC3(CC2)CC3)c1 (single isomer, unassigned) [Example 105-2] |
| 82 nM | CC(C)(C)NS(=O)(=O)c1cccc(NC(=O)c2ncc(NC(C)(C)CO)nc2N2CCC3(CC2)CC3)c1 [Example 100, N-(3-(N-(tert-Butyl)sulfamoyl)phenyl)-5-((1-hydroxy-2-methylpropan-2-yl)amino)-3-(6-azaspiro[2.5]octan-6-yl)pyrazine-2-carboxamide] |
| 177 nM | CC1CCN(c2nc(NC(C)(C)CO)cnc2C(=O)Nc2cccc(S(=O)(=O)NC(C)(C)C)c2)CC1 [Example 100-1, N-(3-(N-(tert-butyl)sulfamoyl)phenyl)-5-((1-hydroxy-2-methylpropan-2-yl)amino)-3-(4-methylpiperidin-1-yl)pyrazine-2-carboxamide] |
| 342 nM | CC(C)(C)NS(=O)(=O)c1cccc(NC(=O)c2ncc(NC(C)(C)CO)nc2N2CCC(F)(F)CC2)c1 [Example 100-2, N-(3-(N-(tert-butyl)sulfamoyl)phenyl)-3-(4,4-difluoropiperidin-1-yl)-5-((1-hydroxy-2-methylpropan-2-yl)amino)pyrazine-2-carboxamide] |
| 455 nM | CC(C)(C)NS(=O)(=O)c1cccc(NC(=O)c2ncc(NC(C)(C)CO)nc2N2CCC(C(F)(F)F)CC2)c1 [Example 100-3, N-(3-(N-(tert-butyl)sulfamoyl)phenyl)-5-((1-hydroxy-2-methylpropan-2-yl)amino)-3-(4-(trifluoromethyl)piperidin-1-yl)pyrazine-2-carboxamide] |
| 133 nM | CCC1CCN(c2nc(NC(C)(C)CO)cnc2C(=O)Nc2cccc(S(=O)(=O)NC(C)(C)C)c2)CC1 [Example 100-4, N-(3-(N-(tert-butyl)sulfamoyl)phenyl)-3-(4-ethylpiperidin-1-yl)-5-((1-hydroxy-2-methylpropan-2-yl)amino)pyrazine-2-carboxamide] |
| 190 nM | CC1(C)CCN(c2nc(NC(C)(C)CO)cnc2C(=O)Nc2cccc(S(=O)(=O)NC(C)(C)C)c2)CC1 [Example 100-5, N-(3-(N-(tert-butyl)sulfamoyl)phenyl)-3-(4,4-dimethylpiperidin-1-yl)-5-((1-hydroxy-2-methylpropan-2-yl)amino)pyrazine-2-carboxamide] |
| 319 nM | CC(C)C1CCN(c2nc(NC(C)(C)CO)cnc2C(=O)Nc2cccc(S(=O)(=O)NC(C)(C)C)c2)CC1 [Example 100-6, N-(3-(N-(tert-butyl)sulfamoyl)phenyl)-5-((1-hydroxy-2-methylpropan-2-yl)amino)-3-(4-isopropylpiperidin-1-yl)pyrazine-2-carboxamide] |
| 788 nM | CC(C)(C)NS(=O)(=O)c1cccc(NC(=O)c2ncc(NC(C)(C)CO)nc2N2CCC(C(C)(C)C)CC2)c1 [Example 100-7, 3-(4-(tert-butyl)piperidin-1-yl)-N-(3-(N-(tert-butyl)sulfamoyl)phenyl)-5-((1-hydroxy-2-methylpropan-2-yl)amino)pyrazine-2-carboxamide] |
| 163 nM | CCC(C)C1CCN(c2nc(NC(C)(C)CO)cnc2C(=O)Nc2cccc(S(=O)(=O)NC(C)(C)C)c2)CC1 (stereo not shown) [Example 100-8, 3-(4-(sec-butyl)piperidin-1-yl)-N-(3-(N-(tert-butyl)sulfamoyl)phenyl)-5-((1-hydroxy-2-methylpropan-2-yl)amino)pyrazine-2-carboxamide] |
| 118 nM | CCCC1CCN(c2nc(NC(C)(C)CO)cnc2C(=O)Nc2cccc(S(=O)(=O)NC(C)(C)C)c2)CC1 [Example 100-9, N-(3-(N-(tert-butyl)sulfamoyl)phenyl)-5-((1-hydroxy-2-methylpropan-2-yl)amino)-3-(4-propylpiperidin-1-yl)pyrazine-2-carboxamide] |
| 221 nM | CC(C)(C)NS(=O)(=O)c1cccc(NC(=O)c2ncc(NC(C)(C)CO)nc2N2CCC(C3CC3)CC2)c1 [Example 100-10, N-(3-(N-(tert-butyl)sulfamoyl)phenyl)-3-(4-cyclopropylpiperidin-1-yl)-5-((1-hydroxy-2-methylpropan-2-yl)amino)pyrazine-2-carboxamide] |
| 1390 nM | COCC1CCN(c2nc(NC(C)(C)CO)cnc2C(=O)Nc2cccc(S(=O)(=O)NC(C)(C)C)c2)CC1 [Example 100-11, N-(3-(N-(tert-butyl)sulfamoyl)phenyl)-5-((1-hydroxy-2-methylpropan-2-yl)amino)-3-(4-(methoxymethyl)piperidin-1-yl)pyrazine-2-carboxamide] |
| 931 nM | CC(C)(C)NS(=O)(=O)c1cccc(NC(=O)c2ncc(NC(C)(C)CO)nc2N2CC3(CCC3)C2)c1 [Example 100-12, N-(3-(N-(tert-butyl)sulfamoyl)phenyl)-5-((1-hydroxy-2-methylpropan-2-yl)amino)-3-(2-azaspiro[3.3]heptan-2-yl)pyrazine-2-carboxamide] |
| 410 nM | CC(C)(C)NS(=O)(=O)c1cccc(NC(=O)c2ncc(NC(C)(C)CO)nc2N2CC3(CCCCC3)C2)c1 [Example 100-13, N-(3-(N-(tert-butyl)sulfamoyl)phenyl)-5-((1-hydroxy-2-methylpropan-2-yl)amino)-3-(2-azaspiro[3.5]nonan-2-yl)pyrazine-2-carboxamide] |
| 1380 nM | CC(C)(C)NS(=O)(=O)c1cccc(NC(=O)c2ncc(NC(C)(C)CO)nc2N2CCC3(CCOCC3)CC2)c1 [Example 100-14, N-(3-(N-(tert-butyl)sulfamoyl)phenyl)-5-((1-hydroxy-2-methylpropan-2-yl)amino)-3-(3-oxa-9-azaspiro[5.5]undecan-9-yl)pyrazine-2-carboxamide] |
| 77 nM | CC(C)(C)NS(=O)(=O)c1cccc(NC(=O)c2ncc(NC(C)(C)CO)nc2N2CCC3(CCC3)CC2)c1 [Example 100-15, N-(3-(N-(tert-butyl)sulfamoyl)phenyl)-5-((1-hydroxy-2-methylpropan-2-yl)amino)-3-(7-azaspiro[3.5]nonan-7-yl)pyrazine-2-carboxamide] |
| 215 nM | CC(C)(C)NS(=O)(=O)c1cccc(NC(=O)c2ncc(NC(C)(C)CO)nc2N2CCC3(CC2)CC(F)(F)C3)c1 [Example 100-16, N-(3-(N-(tert-butyl)sulfamoyl)phenyl)-3-(2,2-difluoro-7-azaspiro[3.5]nonan-7-yl)-5-((1-hydroxy-2-methylpropan-2-yl)amino)pyrazine-2-carboxamide] |
| 129 nM | CC(C)(C)NS(=O)(=O)c1cccc(NC(=O)c2ncc(NC(C)(C)CO)nc2N2CCC3(CCCC3)CC2)c1 [Example 100-17, N-(3-(N-(tert-butyl)sulfamoyl)phenyl)-5-((1-hydroxy-2-methylpropan-2-yl)amino)-3-(8-azaspiro[4.5]decan-8-yl)pyrazine-2-carboxamide] |
| 231 nM | Cc1cc(NC(=O)c2ncc(NC(C)(C)CO)nc2N2CCC3(CC2)CC3)cc(S(=O)(=O)NC(C)(C)C)c1 [Example 101, N-(3-(N-(tert-Butyl)sulfamoyl)-5-methylphenyl)-5-((1-hydroxy-2-methylpropan-2-yl)amino)-3-(6-azaspiro[2.5]octan-6-yl)pyrazine-2-carboxamide] |
| 108 nM | CC(C)(CO)Nc1cnc(C(=O)Nc2cccc(S(=O)(=O)C(C)(C)C(F)(F)F)c2)c(N2CCC3(CC2)CC3)n1 [Example 101-1, 5-((1-hydroxy-2-methylpropan-2-yl)amino)-3-(6-azaspiro[2.5]octan-6-yl)-N-(3-((1,1,1-trifluoro-2-methylpropan-2-yl)sulfonyl)phenyl)pyrazine-2-carboxamide] |
| 218 nM | CC(C)(CO)Nc1cnc(C(=O)Nc2cccc(S(=O)(=O)C(C)(C)C)c2)c(N2CCC3(CC2)CC3)n1 [Example 101-2, N-(3-(tert-butylsulfonyl)phenyl)-5-((1-hydroxy-2-methylpropan-2-yl)amino)-3-(6-azaspiro[2.5]octan-6-yl)pyrazine-2-carboxamide] |
| 204 nM | CC(C)(CO)Nc1cnc(C(=O)Nc2cccc(S(=O)(=O)C3(C)CCC3)c2)c(N2CCC3(CC2)CC3)n1 [Example 101-3, 5-((1-hydroxy-2-methylpropan-2-yl)amino)-N-(3-((1-methylcyclobutyl)sulfonyl)phenyl)-3-(6-azaspiro[2.5]octan-6-yl)pyrazine-2-carboxamide] |
| 172 nM | CC(C)(C)NS(=O)(=O)c1cc(F)cc(NC(=O)c2ncc(NC(C)(C)CO)nc2N2CCC3(CC2)CC3)c1 [Example 101-4, N-(3-(N-(tert-butyl)sulfamoyl)-5-fluorophenyl)-5-((1-hydroxy-2-methylpropan-2-yl)amino)-3-(6-azaspiro[2.5]octan-6-yl)pyrazine-2-carboxamide] |
| 527 nM | CC(C)(C)NS(=O)(=O)c1cccc(NC(=O)c2ncc(NC(C)(C)CO)nc2N2CCC3(CC2)CC3)c1F [Example 101-5, N-(3-(N-(tert-butyl)sulfamoyl)-2-fluorophenyl)-5-((1-hydroxy-2-methylpropan-2-yl)amino)-3-(6-azaspiro[2.5]octan-6-yl)pyrazine-2-carboxamide] |
